Source: PubChem BioAssay AID1288 (Columbia University Molecular Screening Center, 2008)
Calls of active or inactive are those of the source. No rule for the calls is given here.

Columns and labels:
[1] = test system: human endothelial cells, TNFa-induced E-selectin, imaging; experiment: inhibitors of TNFa-induced E-selectin expression, confirmation, imaging, retest plus dose response, cell count (AID 1288)
[2] = as above; details: human endothelial cells, TNFa-induced E-selectin, imaging; cell count toxicity; at 10 µM; stronger effect = lower value

Row | Structure (SMILES) | IC50 [1] | cell count [2] [%]
1 | Cn1c(SC2=CS(=O)(=O)c3ccccc32)nc2ccccc21 | 2.53 µM | 13.4
2 | O=C(Nc1ccc2nc(SCc3ccc(Cl)cc3)sc2c1)c1ccccc1C(=O)N1CCOCC1 | 2.83 µM | 40
3 | CN(C)C(=O)Oc1c(Cl)cc(Cl)c2cccnc12 | 2.55 µM | 20.8
4 | COc1ccc(NC(=O)/C(Cl)=C(/Cl)S(=O)Cc2ccc(Cl)cc2)cn1 (stereo unspecified) | 1.66 µM | 0.27
5 | Cc1ccc(-c2nc(NC(=O)c3nn(C)cc3[N+](=O)[O-])sc2C)cc1C | > 10 µM (inactive) | 106
6 | Cc1ccc2nc3cc([N+](=O)[O-])cc([N+](=O)[O-])c3cc2c1 | > 10 µM (inactive) | 101
7 | O=C(OCn1ncc(Cl)c(Cl)c1=O)c1ccc(F)cc1 | > 10 µM (inactive) | 107
8 | O=C(/C=C/c1cccc([N+](=O)[O-])c1)n1cnc2ccccc21 | 3.81 µM | 19.1
9 | CCN(CC)c1ccc2c(Cl)c(Br)c(=O)oc2c1 | 2.16 µM | 11.5
10 | C=C1C(=O)C=C2CN(C(=O)c3ccccc3)[C@@](Cc3ccc(F)cc3)(C(=O)OC)[C@@H]12 | > 10 µM (inactive) | 104
11 | CCOc1cc(C(=O)NCc2ccc(-c3nc4ccccc4o3)cc2)cc(OCC)c1OCC | 2.39 µM | 22.9
12 | CCCn1c(=NC(=O)c2ccco2)c(C(=O)OCC)cc2c(=O)n3ccccc3nc21 | 4.41 µM | 64.4
13 | Cc1ccccc1NC1=C/C(=N\S(=O)(=O)c2cccs2)c2ccccc2C1=O | > 10 µM (inactive) | 107
14 | COc1cccc(-n2nc(C#N)c(Cl)cc2=O)c1 | > 10 µM (inactive) | 104
15 | Cc1ccc(C(=O)OCn2ncc(Cl)c(Cl)c2=O)cc1 | > 10 µM (inactive) | 101
16 | O=C(OCn1ncc(Cl)c(Cl)c1=O)c1cccc(C(F)(F)F)c1 | > 10 µM (inactive) | 102
17 | CN1C(=O)/C(=C/c2cccn2-c2ccc3ccccc3c2)C(=O)NC1=S | 6.93 µM | 106
18 | O=C(c1ccc([N+](=O)[O-])cc1)N(Cc1ccc(Br)cc1)N1C(=O)CCCC1=O | 6.82 µM | 95.3
19 | COC(=O)c1ccccc1NC(=O)c1ccc(-c2cccc(Cl)c2)o1 | 2.09 µM | 13.8

Row | Structure (SMILES) | IC50 [1] | cell count [2] [%]
20 | COc1ccc(CS(=O)/C(Cl)=C(/Cl)C(=O)Nc2ccc(OC)nc2)cc1 (stereo unspecified) | 2.02 µM | 10.3
21 | COc1ccc(-c2cc(C(=O)Nc3cnn(Cc4ccccc4C)c3)no2)cc1OC | 6.19 µM | 80.4
22 | COc1ccc(NC(=O)c2cc3c(Cl)nc4ccccc4c3s2)c(OC)c1 | > 10 µM (inactive) | 89.6
23 | C=CCSc1nc2ccccc2n1C(=O)/C=C/c1cc(OC)c(OC)c(OC)c1 | 2.17 µM | 24.8
24 | N#CC(C#N)=C1C=CC=CN1/C(=C\c1ccco1)C(=O)c1ccc(-c2ccccc2)cc1 | 2.85 µM | 2.93
25 | Cn1cc([N+](=O)[O-])c(C(=O)Nc2nc(-c3ccc(Cl)cc3)cs2)n1 | > 10 µM (inactive) | 97.8
26 | O=S1(=O)C=C(Sc2nnc(-c3ccccc3)o2)c2ccccc21 | > 10 µM (inactive) | 72.7
27 | O=S(=O)(/C(=C/c1ccc(C(F)(F)F)cc1)c1nc2ccccc2[nH]1)c1ccccc1 | > 10 µM (inactive) | 104
28 | COc1ccc(Oc2cc(NC(=O)c3nn(C)cc3[N+](=O)[O-])cc([N+](=O)[O-])c2)cc1 | 3.5 µM | 23.9
29 | Cc1ccc(-c2nc(NC(=O)c3nn(C)cc3[N+](=O)[O-])sc2C)cc1 | 5.25 µM | 69.6
30 | CC(C)Oc1ccc(/C=N/NC(=O)C(CSCc2ccccc2)NC(=O)c2ccc([N+](=O)[O-])cc2)cc1 (stereo unspecified) | > 10 µM (inactive) | 71.8
31 | O=C(Nc1ccccc1)C1=C(c2ccccc2)S(=O)(=O)CCS1(=O)=O | 7.63 µM | 77.8
32 | CC1C/C(=C/c2ccncc2)C(=O)/C(=C/c2ccncc2)C1 (stereo unspecified) | 4.92 µM | 84.9
33 | O=S(=O)(C/C(=C/CO)S(=O)(=O)c1ccccc1)c1ccccc1 | > 10 µM (inactive) | 97.8
34 | COc1ccc(NC(=O)/C(Cl)=C(/Cl)S(=O)Cc2ccccc2Cl)cn1 (stereo unspecified) | 5.39 µM | 99.9
35 | C=CS(=O)(=O)c1ccc(Oc2ccc(S(=O)(=O)C=C)cc2)cc1 | > 10 µM (inactive) | 95.2
36 | CN1/C(=C/C(=O)c2nc(S(C)(=O)=O)ncc2Cl)C(C)(C)c2ccccc21 | > 10 µM (inactive) | 97.9
37 | Oc1ccc(N2CCN(c3ncnc4sc(-c5ccccc5)cc34)CC2)cc1 | 1.88 µM | 25.6
38 | Cc1ccc(Cl)c(NC(=O)COC(=O)c2ccccc2C(=O)c2ccc(Cl)c([N+](=O)[O-])c2)c1Cl | > 10 µM (inactive) | 96.8
